Measured values as given in US20020168658A1, “Amplification of nucleic acids” (YALE UNIVERSITY, priority 1995, published 2002).

What was measured:
[1] = system: OCT1 template; assay: Amplification using two enzyme mixture Klentaq LA16 with additives; assay type: biochemical, human; conditions: for effect on amplification of OCT1: at 0.1-1.0 M; for amplification of OCT1: 2.2 M betaine or 10% DMSO, FIG. 1A lanes 1-2
Description: (§1) Each of the G+C-rich templates is set up in an amplification reaction using a two enzyme mixture, with and without the addition of betaine (0.5 to 2.5 M), DMSO (5-10%), formnamide (5-10%), glycerol (5-10%), TMACl (0.1 mM to 1 M), and tetramethylammonium acetate (TMAA) (0.1 mM-1.0 M).
(§2) The amplification reaction (50 μl) is performed in 20 mM Tris-HCl, pH 9.0 at 25° C., containing 150 μg/ml of bovine serum albumin, 16 mM ammonium sulfate, 2.5 mM magnesium chloride, 200 μM of each dNTP, 50 ng each of the M13 forward primer and the M13 reverse primer, 0.5-1.0 ng of plasmid templates and 0.2-0.4 μl of Klentaq LA16 (a 1:15 v/v ratio of Klentaq1 (Ab Peptides Inc., St. Louis, Mo.), which is Taq DNA polymerase lacking the 5′ to 3′ exonuclease activity, and Pfu DNA polymerase (Stratagene, LaJolla, Calif.); the long and accurate (LA) system described in Barnes, Proc. Natl. Acad. Sci. USA 91:2216, 1994). DMSO, TMACl, TMAA, betaine, or the combination of DMSO and betaine is added to aliquots of the same mixture without dNTPs and overlaid with mineral oil. Amplification is performed in a thermocycler instrument using thin-walled tubes (0.5 ml). The tubes are heated at 95° C. for 15 seconds and amplification is initiated by the addition of dNTPs at 80° C. The following cycling conditions are used for 25 cycles: denaturation at 94° C. for 15 seconds, annealing at 50 to 55° C. for 1 minute, and extension at 68° C. for 5 minutes. Following amplification, 10 μl of the resulting product is loaded onto a 1% agarose gel (see Molecular Cloning: A Laboratory Manual by J. Sambrook et al., Cold Spring Harbor, 1989). The amplified DNA is stained with ethidium bromide and the gel is photographed while UV-irradiated by a transilluminator.

[2] = system: OCT-T1 template (80% G+C); assay: Amplification using AmpliTaq DNA polymerase under standard conditions with additives; assay type: biochemical, human; conditions: DMSO 10% v/v, betaine up to 2.5 M, glycerol 10% v/v, formamide 10% v/v, TMACl 0.1 mM to 1.0 M
Text: (§3) A number of test DNAs are utilized in amplification reactions. Four of the test fragments are:
(iii) a 0.8 kb fragment of human OCT-T1 cDNA, which encodes a transcription factor expressed in T lymphocytes that binds the octamer sequence, and which has an 80% G+C content (see Bhargava et al., Proc. Natl. Acad. Sci. USA 91:10260, 1993; SEQ ID NO. 4); and
As each of these fragments are cloned in pBluescript or a pUC plasmid (MHCcln1), primers for amplification of these fragments are the M13 forward primer ([…]; SEQ. ID No. 1) and the M13 reverse primer ([…]; SEQ ID No. 2). Thus, the sizes of the amplified fragments for each of these four templates, with the exception of MHCcln1, include 200 bp of multiple cloning sites of pBluescript vector.
The two G+C-rich templates are unsuccessfully amplified (MHCcln1 and OCT-T1) using AmpliTaq® DNA polymerase (Perkin-Elmer Cetus) under standard conditions. (See Science 239:487, 1988). […] In addition, betaine (>1.0 M), formamide (>5%), and TMACl (>100 mM) are inhibitory for amplification of the non-G+C-rich template OCT1.

[3] = system: TFR template (44% G+C); assay: Amplification using two enzyme mixture Klentaq LA16 with additives; assay type: biochemical, human; conditions: for TFR amplification: salt >0.15 M; for amplification of TFR: Klentaq LA16, 2.2 M betaine or 10% DMSO, FIG. 1A lanes 3-4
Description: as §1, §2
(§4) Various analogues of betaine and two tetraalkylammonium salts are used to amplify OCT-T1 or TFR templates. Amplification reactions are performed as above in the presence of either 2 M analogue or at least 0.15 M salt.

[4] = system: OCT-T1 template (80% G+C); assay: as above; assay type: biochemical, human; conditions: for OCT-T1 amplification: salt >0.15 M; for amplification of OCT-T1: Klentaq LA16, 2.2 M betaine or 10% DMSO, FIG. 1A lanes 7-8
Description: as §1, §2, §4

[5] = system: OCT1 template (52% G+C); assay: Amplification using AmpliTaq DNA polymerase under standard conditions with additives; assay type: biochemical, human
Text: as §3
(i) a 2.7 kb cDNA encoding the octamer binding protein, OCT1 GenBank accession No. X13403; Sturm et al., Genes & Dev. 2:1582, 1988; SEQ ID No. 8), which has a 52% G+C content;
(§5) Thus, the sizes of the amplified fragments for each of these four templates, with the exception of MHCcln1, include 200 bp of multiple cloning sites of pBluescript vector.
(§6) (See Science 239:487, 1988).

[6] = system: MHCcln1 template (64% G+C); assay: as above; assay type: biochemical; conditions: DMSO 10% v/v, betaine up to 2.5 M, glycerol 10% v/v, formamide 10% v/v, TMACl 0.1 mM to 1.0 M
Text: as §3
(ii) a 1.6 kb fragment from the MHC region, MHCclnl, which has a 64% G+C content (see Shukla et al., Nucleic Acids Res. 19:4233, 1991; GenBank Accession No. L20433; SEQ ID No. 3, which presents nucleotides 320 to 850 of L20433);
as §5, §6

[7] = system: mixture of the 4 templates, OCT1, OCT-T1, TFR and MHCcln1; assay: Amplification of a mixture of the four templates using Klentaq LA16, varying DMSO and/or betaine; assay type: biochemical; conditions: for uniformity of amplification of the four templates: DMSO (5%, 10%) or betaine (1.1 M, 2.2 M) alone, FIG. 1B lanes 9-12
Description: as §2
Amplification is also performed on a mixture of the four templates, varying the concentrations of DMSO and/or betaine. […] Thus, by adding both DMSO and betaine, preferably within a range of 1.0 M betaine with 6-8% DMSO or 5% DMSO with 1.2-1.8 M betaine, all four templates are amplified.

[8] = system: MHCcln1 template; assay: Amplification using two enzyme mixture Klentaq LA16 with additives; assay type: biochemical; conditions: 2.2 M betaine or 10% DMSO, FIG. 1A lanes 5-6
Description: as §1
as §2, with “The following cycling conditions are used for 25 cycles: denaturation at 94° C. for 15 seconds, annealing at 50 to 55° C. for 1 minute, and extension at 68° C. for 5 minutes. Following amplification, 10 μl of the resulting product is loaded onto a 1% agarose gel (see Molecular Cloning: A Laboratory Manual by J. Sambrook et al., Cold Spring Harbor, 1989). The amplified DNA is stained with ethidium bromide and the gel is photographed while UV-irradiated by a transilluminator.” left out

[9] = higher concentration of DMSO (12-15%) or betaine (1.8-2.5 M)

visible amplification of OCT-T1 [2]	visible amplification of MHCcln1 [6]	amplification of OCT1 [1]	amplification of TFR [3]	amplification of OCT-T1 [4]	effect on amplification of the non-G+C-rich template OCT1 ([5]; betaine >1.0 M)	amplification of MHCcln1 [8]	Structure (SMILES)	effect on amplification of OCT1 [1]	TFR amplification [3]	OCT-T1 amplification [4]	effect on amplification of the non-G+C-rich template OCT1 ([5]; TMACl >100 mM)	amplification of all four templates ([7]; 2.2 M betaine (lane 12))	uniformity of amplification of the four templates [7]	amplification of all four templates [7, 9]	effect on amplification of the non-G+C-rich template OCT1 ([5]; formamide >5%)
did not result in visible amplification	did not result in visible amplification	–	–	–	–	–	OCC(O)CO [glycerol]	–	–	–	–	–	–	–	–
did not result in visible amplification	did not result in visible amplification	could be amplified	could be amplified	could be amplified	inhibitory	could be amplified	C[N+](C)(C)CC(=O)O [Glycine betaine]	–	–	–	–	amplified to a varying extent	not amplified uniformly	variable amplification	–
–	–	–	–	–	–	–	CC(=O)[O-].C[N+](C)(C)C [TMAA, tetramethylammonium acetate]	inhibit amplification	unable to facilitate amplification	unable to facilitate amplification	–	–	–	–	–
did not result in visible amplification	did not result in visible amplification	could be amplified	could be amplified	could be amplified	–	could be amplified	C[S+](C)[O-] [DMSO, dimethyl sulfoxide]	–	–	–	–	–	not amplified uniformly	variable amplification	–

Structure (SMILES)	visible amplification of OCT-T1 [2]	visible amplification of MHCcln1 [6]	amplification of OCT1 [1]	amplification of TFR [3]	amplification of OCT-T1 [4]	effect on amplification of the non-G+C-rich template OCT1 ([5]; betaine >1.0 M)	amplification of MHCcln1 [8]	effect on amplification of OCT1 [1]	TFR amplification [3]	OCT-T1 amplification [4]	effect on amplification of the non-G+C-rich template OCT1 ([5]; TMACl >100 mM)	amplification of all four templates ([7]; 2.2 M betaine (lane 12))	uniformity of amplification of the four templates [7]	amplification of all four templates [7, 9]	effect on amplification of the non-G+C-rich template OCT1 ([5]; formamide >5%)
C[N+](C)(C)C.[Cl-] [TMAC, tetramethylammonium chloride]	did not result in visible amplification	did not result in visible amplification	–	–	–	–	–	inhibit amplification	unable to facilitate amplification	unable to facilitate amplification	inhibitory	–	–	–	–
NC=O [formamide]	did not result in visible amplification	did not result in visible amplification	–	–	–	–	–	–	–	–	–	–	–	–	inhibitory
